From patent publication US20230000753A1, “Encapsulated Cleansing Composition” (Henkel AG & Co. KGaA, priority 2020, published 2023)

Test system: skin
Test: 5 day cumulative irritation patch study
Format: in vivo
Method: To evaluate the skin irritation potential of cleansing products, a 5 day cumulative irritation patch study was conducted. Cumulative irritancy patch testing is a modified primary irritancy patch test that can detect weak irritants that require multiple applications to cause a skin reaction. These reactions are due to direct damage to the epidermal cells and no immunologic (allergic) mechanism is involved. The procedure used in the Examples is a modification of that described by Dr. B. M. Lanman at the Joint Conference on Cosmetic Sciences, Apr.

SMILES: CCCCCCCCCCCCOS(=O)(=O)[O-].[Na+] [0.25% SLS, sodium lauryl sulfate]
- Irritancy Class: Moderately
- Normalized Total Score: 290.2
